Experimental data published in patent US20260217863A1, “ANTIBODY OR PEPTIDE BINDING SPECIFICALLY TO RNASE A, IMMUNOASSAY DEVICE AND METHOD FOR DETECTING RNASE A, AND METHOD FOR COLLECTING RNASE A” (UIF (University Industry Foundation), Yonsei University, priority 2022, published 2026).
Where no end group is shown, it is not given here.

Target: T1, RNase A (Bos taurus, UniProt P61823)
T1 sequence (P61823 27-150): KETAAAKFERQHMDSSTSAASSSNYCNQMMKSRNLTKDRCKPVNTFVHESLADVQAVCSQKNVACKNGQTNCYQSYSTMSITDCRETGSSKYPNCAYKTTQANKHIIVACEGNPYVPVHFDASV
Test: SPR biosensor binding analysis with immobilized RNase A
Parameters: Ribonuclease A (Type II-A) from bovine pancreas; purchased Sigma-Aldrich Korea; host or cells: bovine pancreas; species or system bovine
Conditions: synthetic peptides, 0.37-10 μM; RNase A immobilized on Au chip; read-out: affinity constant (KD)
Description: Binding analysis of the expressed FV antibody and synthesized peptides against RNase A was performed using an SPR (Surface Plasmon Resonance) biosensor from I-Cluebio (Seongnam, Korea). RNase A was immobilized on the gold surface of the SPR chip used in the SPR biosensor to conduct the binding analysis. For the manufacture of the SPR chip, a 2 nm thick titanium adhesive layer and a 48 nm thick gold surface were consecutively sputter-coated onto BK-7 glass (1×1 cm^2). […] To analyze the binding of the expressed Fv antibody to RNase A, Fv antibodies in the concentration range of 0.37-100 nM were reacted using PBS buffer as the […] through association (10 minutes), equilibrium (5 minutes), and dissociation (10 minutes) steps. The washing buffer and total SPR measurements were performed at a flow rate of 15 μL/min. For the binding analysis of the synthesized peptides against RNase A, peptides in the concentration range of 0.37-100 nM were reacted using PBS buffer as the washing buffer through association (10 minutes), equilibrium (5 minutes), and dissociation (10 minutes) steps, and total SPR measurements were conducted at a flow rate of 15 μL/min.
Using the screened CDR3 amino acid sequences, the CDR3 regions of the screened Fv antibodies were synthesized as peptides, and the amino acid sequences were determined from the nucleotide sequences of the CDR3 regions as summarized in Table 2. These synthetic peptides (Peptide-1, Peptide-2, Peptide-3) and Fv antibodies (Fv-1, Fv-2, Fv-3) were identical to the amino acid sequences of the CDR3 regions of the screened clones. […] The SPR signal was plotted according to the concentration of the synthetic peptides, and the affinity constants (KD) of these synthetic peptides were calculated through a fitting process. […]
Using the screened CDR3 amino acid sequences, the CDR3 regions of the screened Fv antibodies were synthesized as peptides, and the amino acid sequences were determined from the nucleotide sequences of the CDR3 regions as summarized in Table 7. […]

Row | Sequence | Kd
1 | DGTAKKSRKDD [Peptide-3] | 3.7 ± 1.1 µM
2 | YGPVGRVKRDD [Peptide-2] | 1.3 ± 0.3 µM
3 | CGPDSDVMTDF [Peptide-1] | 1.3 ± 0.1 µM
